# Measured values reported in patent US20250304576A1 (Cancer Research Technology Limited, priority 2022, published 2025).
# Columns and labels:
# Recombinant IKKβ = target: T1, Recombinant IKKβ (Homo sapiens, UniProt O14920); assay: DELFIA IKKβ kinase assay (apparent Ki, Cheng-Prusoff); assay type: biochemical
# T1 construct: purchased Millipore, Dundee, UK
# T1 sequence (O14920 1-756): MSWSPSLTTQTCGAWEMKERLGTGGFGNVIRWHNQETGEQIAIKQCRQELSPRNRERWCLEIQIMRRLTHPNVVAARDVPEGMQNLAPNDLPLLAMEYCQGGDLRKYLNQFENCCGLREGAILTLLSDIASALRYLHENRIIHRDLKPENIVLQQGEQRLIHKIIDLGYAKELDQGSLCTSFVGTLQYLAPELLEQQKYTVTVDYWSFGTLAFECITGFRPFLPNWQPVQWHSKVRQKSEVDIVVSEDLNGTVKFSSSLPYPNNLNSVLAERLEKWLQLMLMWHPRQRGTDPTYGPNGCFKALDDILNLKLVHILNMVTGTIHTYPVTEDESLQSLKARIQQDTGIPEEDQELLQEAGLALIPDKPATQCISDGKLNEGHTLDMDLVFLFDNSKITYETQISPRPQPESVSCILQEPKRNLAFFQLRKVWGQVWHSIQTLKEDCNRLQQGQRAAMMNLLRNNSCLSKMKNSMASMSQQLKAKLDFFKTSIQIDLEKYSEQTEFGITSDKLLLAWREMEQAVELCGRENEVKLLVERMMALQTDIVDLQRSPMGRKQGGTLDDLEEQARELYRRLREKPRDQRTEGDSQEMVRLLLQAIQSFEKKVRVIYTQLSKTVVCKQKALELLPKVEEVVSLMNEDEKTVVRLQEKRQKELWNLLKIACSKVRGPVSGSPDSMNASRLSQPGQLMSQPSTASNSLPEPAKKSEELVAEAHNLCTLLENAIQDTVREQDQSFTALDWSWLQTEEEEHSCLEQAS
# Method in brief: (§1)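 Recombinant IKKα or IKKβ (37 nM) with 0.375 μM biotinylated IκB-α (Ser32) peptide and 40 μM ATP in 40 mM Tris-HCl pH 7.5, 20 mM MgCl2, 60 min at 30° C. Phospho-substrate captured on streptavidin and detected by anti-phospho-IκB-α plus europium anti-mouse IgG time-resolved fluorescence; apparent Ki via Cheng-Prusoff.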
# Recombinant IKKα = target: T2, Recombinant IKKα (Homo sapiens, UniProt O15111); assay: DELFIA IKKα kinase assay (apparent Ki, Cheng-Prusoff); assay type: biochemical
# T2 construct: purchased Millipore, Dundee, UK
# T2 sequence (O15111 1-745): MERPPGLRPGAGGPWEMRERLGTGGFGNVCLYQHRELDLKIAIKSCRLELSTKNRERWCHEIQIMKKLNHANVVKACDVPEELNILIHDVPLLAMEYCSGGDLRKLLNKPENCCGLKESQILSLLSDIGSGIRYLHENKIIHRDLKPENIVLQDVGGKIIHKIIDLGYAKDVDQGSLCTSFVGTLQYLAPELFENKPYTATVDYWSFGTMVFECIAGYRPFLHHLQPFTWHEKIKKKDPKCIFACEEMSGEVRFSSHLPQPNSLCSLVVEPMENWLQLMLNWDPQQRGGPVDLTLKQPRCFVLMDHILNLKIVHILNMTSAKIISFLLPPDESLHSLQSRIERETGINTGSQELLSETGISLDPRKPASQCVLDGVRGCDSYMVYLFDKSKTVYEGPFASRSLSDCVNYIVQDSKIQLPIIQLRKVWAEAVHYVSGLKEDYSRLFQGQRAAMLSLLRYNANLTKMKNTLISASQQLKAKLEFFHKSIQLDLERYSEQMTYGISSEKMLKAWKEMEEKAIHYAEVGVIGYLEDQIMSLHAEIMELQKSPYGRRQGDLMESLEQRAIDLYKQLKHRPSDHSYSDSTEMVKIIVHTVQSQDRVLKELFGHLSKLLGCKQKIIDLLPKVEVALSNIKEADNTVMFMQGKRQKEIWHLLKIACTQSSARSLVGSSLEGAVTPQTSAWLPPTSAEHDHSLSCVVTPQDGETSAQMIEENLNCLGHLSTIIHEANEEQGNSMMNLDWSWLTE
# Method in brief: as §1
# [1] = non-italicised figure: DELFIA assay
# [2] = DELFIA assay (first line of an example)
Compound,Ki (Recombinant IKKβ; [1]) [nM],Ki (Recombinant IKKα; [1]) [nM],Ki (Recombinant IKKβ; [2]) [nM],Ki (Recombinant IKKα; [2]) [nM]
"Nc1n[nH]c2ccc(-c3ccnc(NC(=O)Nc4cccc(OCc5ccc(F)cc5)c4)c3)cc12 [Example 58, 1-(4-(3-Amino-1H-indazol-5-yl)pyridin2-yl)-3-(3-((4-fluorobenzyl)oxy)phenyl)urea]",1970,80,–,–
"Nc1n[nH]c2ccc(-c3ccnc4[nH]c(C(=O)O)cc34)cc12 [Example 10, 4-(3-Amino-1H-indazol-5-yl)-1H-pyrrolo[2,3-b]pyridine-2-carboxylic acid]",335,5,–,–
CS(=O)(=O)c1cccc(-c2cc(-c3ccnc(N)c3)cc3c(N)n[nH]c23)c1 [Example 115],2000,79,–,–
"CC(C)(C)C#Cc1cc(-c2ccnc3[nH]c(C(C)(C)O)cc23)cc2c(N)n[nH]c12 [Example 298, 2-(4-(3-Amino-7-(3,3-dimethylbut-1-yn-1-yl)-1H-indazol-5-yl)-1H-pyrrolo[2,3-b]pyridin-2-yl)propan-2-ol]",–,–,540,16
"Nc1n[nH]c2ccc(-c3ccnc(NC(=O)Nc4cccc(OCc5cccc(F)c5)c4)c3)cc12 [Example 59, 1-(4-(3-Amino-1H-indazol-5-yl)pyridin-2-yl)-3-(3-((3-fIuorobenzyl)oxy)phenyl)urea]",1780,93,–,–
"Nc1ccc(C#Cc2c(-c3ccc4[nH]nc(N)c4c3)ccnc2N)cc1 [Example 76, 5-(2-Amino-3-((4-aminophenyl)ethynyl)pyridine-4-yl)-1H-indazol-3-amine]",32,8,–,–
"Nc1cc(-c2cc(-c3cccc(S(N)(=O)=O)c3)c3[nH]nc(N)c3c2)ccn1 [Example 114, 3-(3-Amino-5-(2-aminopyridin-4-yl)-1H-indazol-7-yl)benzenesulfonamide]",461,7,–,–
"CC(C)(C)C#Cc1cc(-c2ccnc3[nH]c(CO)cc23)cc2c(N)n[nH]c12 [Example 297, (4-(3-Amino-7-(3,3-dimethylbut-1-yn-1-yl)-1H-indazol-5-yl)-1H-pyrrolo[2,3-b]pyridin-2-yl)methanol]",–,–,268,2
"CC(C)(C)C#Cc1cc(-c2ccnc(NS(C)(=O)=O)c2)cc2c(N)n[nH]c12 [Example 194, N-(4-(3-amino-7-(3,3-dimethylbut-1-yn-1-yl)-1H-indazol-5-yl)pyridin-2-yl)methanesulfonamide]",–,–,4900,373
"Nc1cc(-c2cc(-c3cncs3)c3[nH]nc(N)c3c2)ccn1 [Example 132, 5-(2-Aminopyridin-4-yl)-7-(thiazol-5yl)-1H-indazol-3-amine]",316,26,–,–
"CC(C)(C)C#Cc1cc(-c2ccnc(NCCO)c2)cc2c(N)n[nH]c12 [Example 160, 2-((4-(3-Amino-7-(3,3-dimethylbut-1-yn-1-yl)-1H-indazol-5-yl)pyridin-2-yl)amino)ethan-1-ol]",1340,8,–,–
"Nc1cc(-c2cc(-c3cccc(C(F)(F)F)c3)c3[nH]nc(N)c3c2)ccn1 [Example 106, 5-(2-Aminopyridin-4-yl)-7-(3-(trifluoromethyl)phenyl)-1H-indazol-3-amine]",1010,162,–,–
"CNCCCNc1cc(-c2ccc3[nH]nc(N)c3c2)ccn1 [Example 32, N^1-(4-(3-Amino-1H-indazol-5-yl)pyridin-2-yl)-N^3-methylpropane-1,3-diamine]",> 10000,340,–,–
"COC(=O)Nc1cc(-c2cc(-c3ccc(O)cc3)c3[nH]nc(N)c3c2)ccn1 [Example 323, Methyl (4-(3-Amino-7-(4-hydroxyphenyl)-1H-indazol-5-yl)pyridin-2-yl)carbamate]",–,–,83,9.8
"Nc1n[nH]c2ccc(-c3ccnc4[nH]c(Cc5ccccc5)cc34)cc12 [Example 223, 5-(2-Benzyl-1H-pyrrolo[2,3-b]pyridin-4-yl)-1H-indazol-3-amine]",–,–,111,1
"COC(=O)Nc1cc(-c2cc(-c3ccc(N)cc3)c3[nH]nc(N)c3c2)ccn1 [Example 325, Methyl (4-(3-amino-7-(4-aminophenyl)-1H-indazol-5-yl)pyridin-2-yl)carbamate]",–,–,79,6
"CC(C)(C)C#Cc1cc(-c2ccnc(NCC3CC3)c2)cc2c(N)n[nH]c12 [Example 157, 5-(2-((Cyclopropylmethyl)amino)pyridin-4-yl)-7-(3,3-dimethylbut-1-yn-1-yl)-1H-indazol-3-amine]",2800,141,–,–
"C#Cc1cc(-c2ccnc3[nH]ccc23)cc2c(N)n[nH]c12 [Example 6, 7-Ethynyl-5-(1H-pyrrolo[2,3-b]pyridin-4-yl)-1H-indazol-3-amine]",137,26,–,–
"Nc1cc(-c2cc(-c3cccc(O)c3)c3[nH]nc(N)c3c2)ccn1 [Example 108, 3-(3-Amino-5-(2-aminopyridin-4-yl)-1H-indazol-7-yl)phenol]",680,10,–,–
"CCNc1cc(-c2ccc3[nH]nc(N)c3c2)ccn1 [Example 12, 5-[2-(Ethylamino)pyridin-4-yl]-1H-indazol-3-amine]",38,8,–,–
"Cn1nnc(Nc2cc(-c3cc(C#CC(C)(C)C)c4[nH]nc(N)c4c3)ccn2)n1 [Example 320, 7-(3,3-Dimethylbut-1-yn-1-yl)-5-(2-((2-methyl-2H-tetrazol-5-yl)amino)pyridin-4-yl)-1H-indazol-3-amine]",–,–,18.5,5
"CC(C)(C)C#Cc1cc(-c2ccnc3[nH]c(C4CCC4)nc23)cc2c(N)n[nH]c12 [Example 301, 5-(2-Cyclobutyl-3H-imidazo[4,5-b]pyridin-7-yl)-7-(3,3-dimethylbut-1-yn-1-yl)-1H-indazol-3-amine]",–,–,1240,82
"COC(=O)c1ccc(C#Cc2c(-c3ccc4[nH]nc(N)c4c3)ccnc2N)cc1 [Example 80, Methyl 4-((2-amino-4-(3-amino-1H-indazol-5-yl)150yridine-3-yl)ethynyl)benzoate]",15,2,–,–
"Nc1n[nH]c2c(C#CC3CC3)cc(-c3ccnc(NC(=O)C4CC4)c3)cc12 [Example 289, N-(4-(3-Amino-7-(cyclopropylethynyl)-1H-indazol-5-yl)pyridin-2-yl)cyclopropanecarboxamide]",–,–,570,42
Nc1cc(-c2cc(-c3ccccc3CO)c3[nH]nc(N)c3c2)ccn1 [Example 125],796,183,–,–
"CC(C)(C)C#Cc1cc(-c2ccnc3[nH]c(CC4CCCCC4)cc23)cc2c(N)n[nH]c12 [Example 278, 5-(2-(Cyclohexylmethyl)-1H-pyrrolo[2,3-b]pyridin-4-yl)-7-(3,3-dimethylbut-1-yn-1-yl)-1H-indazol-3-amine]",–,–,> 10000,380
"NC(=O)c1cccc(NC(=O)Nc2cc(-c3ccc4[nH]nc(N)c4c3)ccn2)c1 [Example 55, 3-(3-(4-(3-Amino-1H-indazol-5-yl)pyridin-2-yl)ureido)benzamide]",503,21,–,–
"CC(C)CCNc1cc(-c2ccc3[nH]nc(N)c3c2)ccn1 [Example 16, 5-(2-(Isopentylamino)pyridin-4-yl)-1H-indazol-3-amine]",838,65,–,–
"Nc1n[nH]c2ccc(-c3ccnc4[nH]c(C(=O)NCCc5ccccc5)cc34)cc12 [Example 238, 4-(3-Amino-1H-indazol-5-yl)-N-phenethyl-1H-pyrrolo[2,3-b]pyridine-2-carboxamide]",–,–,90,23
